# Values of other authors in patent publication US20210213050A1, “Compositions and Methods for the Removal of Extraneous Calcium Hydroxyapatite” (HENRY FORD HEALTH SYSTEM, priority 2018, published 2021).
# What was measured:
# [1] = fold higher than CaHA; proposed mechanism
compound,measurement,setting,value
"O=S([O-])S(=O)(=O)[O-].[Na+].[Na+] [SMB, sodium metabisulfite]",CaHA remaining after topical treatment alone,"porcine skin, topical SMB alone, histology after approximately 24 hours",approximately 50%
"O=S([O-])([O-])=S.[Ca+2] [calcium thiosulfate salt, calcium thiosulfate]",solubility of calcium thiosulfate salt relative to CaHA,[1],"250- to 100,000 fold"
O=S([O-])([O-])=S.[Na+].[Na+] [sodium thiosulfate],ability to dissolve previously injected CaHA microspheres,"porcine skin samples injected subdermally with CaHA, intralesional sodium thiosulfate 0.2 mL, 12.5 g/50 mL, alone or with topical sodium metabisulfite",able to dissolve previously injected CaHA microspheres
same,visible CaHA microspheres on histologic analysis of the treated area,"porcine skin, intralesional sodium thiosulfate, 24 hours later",no visible CaHA microspheres were observed
